The source of these data is the NIST ThermoML archive (doi:10.1021/acs.jced.6b00158).

Numbers after ± are expanded uncertainties.

For series [1] the following is noted: 100 kPa, Liquid; for viscosity: Falling or rolling sphere viscometry; for mass density: Vibrating tube method.
The nature of series [2]: xn = mol fraction of the nth substance listed. Conditions: 100 kPa, Liquid, x1 = 1; for viscosity: Falling or rolling sphere viscometry; for mass density: Vibrating tube method.

As for `CC(C)CO` [2-methyl-1-propanol], the viscosity (commonly the internal friction of a fluid under shear) in series [1] (293.15 K) was 4.023 ± 0.069 mPa·s; in series [1] (298.15 K), 3.404 ± 0.067 mPa·s; in series [1] (303.15 K), 2.882 ± 0.065 mPa·s; in series [1] (308.15 K), 2.475 ± 0.064 mPa·s; in series [1] (313.15 K), 2.097 ± 0.063 mPa·s. Also, the mass density (in general, the mass of a sample divided by its volume) stood at 801.96 ± 2 kg/m3 in series [1] (293.15 K); 798.12 ± 2 kg/m3 in series [1] (298.15 K); 794.22 ± 2 kg/m3 in series [1] (303.15 K); 790.27 ± 2 kg/m3 in series [1] (308.15 K); 786.27 ± 2 kg/m3 in series [1] (313.15 K).

Take `CC(C)CO` [2-methyl-1-propanol] + NC1CCCCC1: the viscosity worked out at 4.023 ± 0.069 mPa·s in series [2] (293.15 K); 3.404 ± 0.067 mPa·s in series [2] (298.15 K); 2.882 ± 0.065 mPa·s in series [2] (303.15 K); 2.475 ± 0.064 mPa·s in series [2] (308.15 K); 2.097 ± 0.063 mPa·s in series [2] (313.15 K). For the same compound, the mass density is 801.96 ± 2 kg/m3 in series [2] (293.15 K); 798.12 ± 2 kg/m3 in series [2] (298.15 K); 794.22 ± 2 kg/m3 in series [2] (303.15 K); 790.27 ± 2 kg/m3 in series [2] (308.15 K); 786.27 ± 2 kg/m3 in series [2] (313.15 K).

With `NC1CCCCC1` [cyclohexylamine], the viscosity in series [1] (293.15 K) came to 2.134 ± 0.063 mPa·s; in series [1] (298.15 K), 1.944 ± 0.062 mPa·s; in series [1] (303.15 K) it was 1.786 ± 0.062 mPa·s; in series [1] (308.15 K), 1.572 ± 0.062 mPa·s; in series [1] (313.15 K), 1.417 ± 0.061 mPa·s. The mass density in series [1] (293.15 K) was found to be 866.85 ± 2 kg/m3; in series [1] (298.15 K), 862.31 ± 2 kg/m3; in series [1] (303.15 K) it was 857.79 ± 2 kg/m3; in series [1] (308.15 K) it was 853.24 ± 2 kg/m3; in series [1] (313.15 K), 848.71 ± 2 kg/m3.
